Starred links: 1 amine or outer side, 2 acyl side, 3 side chain; linkers in the order of their positions; H or OH if unused. Non-standard residues stand in square brackets, D forms with d. Residues, ends and D or L forms follow the SMILES beside them. X3 = CC(=O)O[C@@H](c1ccccc1)[C@@H](N[*:1])C(=O)[*:2]; X1 = CC(=O)O[C@H](c1ccccc1)[C@H](N[*:1])C(=O)[*:2]; X2 = O=C(/C(=C/c1ccccc1)N[*:1])[*:2]; Phe(ol) = N[C@H](CO)Cc1ccccc1
Experiments:
[1] = biological target: Cyclin-dependent kinase 2/cyclin A (Homo sapiens, UniProt P24941); assay: In vitro inhibition of CDK2-cyclin A kinase activity on retinoblastoma protein; assay type: protein-complex assay
[2] = Inhibition of competitive binding to cyclin-A kinase complex
[3] = Inhibition of p21WAF1 peptide recruitment to CDK 2/cyclin-A complex

| IC50 [1] [nM] | IC50 [2] [nM] | IC50 [3] [nM] | Structure (SMILES) |
| --- | --- | --- | --- |
| 200 |  |  | CC[C@H](C)[C@H](NC(=O)[C@H](CC(C)C)NC(=O)[C@H](CCCNC(=N)N)NC(=O)[C@H](CCCNC(=N)N)NC(=O)[C@H](CCCCN)NC(=O)[C@H](C)NC(=O)[C@@H](N)Cc1cnc[nH]1)C(=O)N[C@@H](C(=O)O)[C@@H](OC(C)=O)c1ccccc1 |
| 3400 | 4300 |  | CC[C@H](C)[C@H](NC(=O)[C@H](CC(C)C)NC(=O)[C@H](CCCN=C(N)N)NC(=O)[C@H](CCCN=C(N)N)NC(=O)[C@H](CCCCN)NC(=O)[C@H](CO)NC(=O)[C@@H](N)Cc1c[nH]cn1)C(=O)N[C@@H](Cc1ccccc1)C(N)=O |
| 560 | 250 | 190 | CC[C@H](C)[C@H](NC(=O)[C@H](CC(C)C)NC(=O)[C@H](CCCN=C(N)N)NC(=O)[C@H](CCCN=C(N)N)NC(=O)[C@H](CCCCN)NC(=O)[C@H](CO)NC(=O)[C@@H](N)Cc1c[nH]cn1)C(=O)N[C@H](C(=O)O)[C@H](O)c1ccccc1 |
| 430 |  | 310 | CC[C@H](C)[C@H](NC(=O)[C@H](CC(C)C)NC(=O)[C@H](CCCN=C(N)N)NC(=O)[C@H](CCCN=C(N)N)NC(=O)[C@H](CCCCN)NC(=O)[C@H](CO)NC(=O)[C@@H](N)Cc1c[nH]cn1)C(=O)N[C@H](CO)Cc1ccccc1 |
|  | 120 | 110 | CC[C@H](C)[C@H](NC(=O)[C@H](CC(C)C)NC(=O)[C@H](CCCN=C(N)N)NC(=O)[C@H](CCCN=C(N)N)NC(=O)[C@H](CCCCN)NC(=O)[C@H](C)NC(=O)[C@@H](N)Cc1c[nH]cn1)C(=O)N[C@@H](C(=O)O)[C@@H](O)c1ccccc1 |
| 1200 | 760 | 710 | CC[C@H](C)[C@H](NC(=O)[C@H](CC(C)C)NC(=O)[C@H](CCCN=C(N)N)NC(=O)[C@H](CCCN=C(N)N)NC(=O)[C@H](CCCCN)NC(=O)[C@H](CO)NC(=O)[C@@H](N)Cc1c[nH]cn1)C(=O)N[C@@H](C(=O)O)[C@@H](O)c1ccccc1 |
|  | 74 | 28 | CC[C@H](C)[C@H](NC(=O)[C@H](CC(C)C)NC(=O)[C@H](CCCN=C(N)N)NC(=O)[C@H](CCCN=C(N)N)NC(=O)[C@H](CCCCN)NC(=O)[C@H](C)NC(=O)[C@@H](N)Cc1c[nH]cn1)C(=O)N[C@H](C(=O)O)[C@H](O)c1ccccc1 |
|  | 22 | 18 | CC[C@H](C)[C@H](NC(=O)[C@H](CC(C)C)NC(=O)[C@H](CCCN=C(N)N)NC(=O)[C@H](CCCN=C(N)N)NC(=O)[C@H](CCCCN)NC(=O)[C@H](C)NC(=O)[C@@H](N)Cc1c[nH]cn1)C(=O)N[C@H](CO)Cc1ccccc1 (H-HAKRRLI[Phe(ol)]) |
| 320 | 230 | 240 | CC[C@H](C)[C@H](NC(=O)[C@H](CC(C)C)NC(=O)[C@H](CCCN=C(N)N)NC(=O)[C@H](CCCN=C(N)N)NC(=O)[C@H](CCCCN)NC(=O)[C@H](C)NC(=O)[C@@H](N)Cc1c[nH]cn1)C(=O)N[C@H](C(=O)O)[C@H](OC(C)=O)c1ccccc1 (H-HAKRRLI[X1]-OH) |
| 70 | 60 | 54 | CC[C@H](C)[C@H](NC(=O)[C@H](CC(C)C)NC(=O)[C@H](CCCN=C(N)N)NC(=O)[C@H](CCCN=C(N)N)NC(=O)[C@H](CCCCN)NC(=O)[C@H](C)NC(=O)[C@@H](N)Cc1c[nH]cn1)C(=O)N/C(=C\c1ccccc1)C(=O)O (H-HAKRRLI[X2]-OH) |
|  | 190 | 160 | CC[C@H](C)[C@H](NC(=O)[C@H](CC(C)C)NC(=O)[C@H](CCCN=C(N)N)NC(=O)[C@H](CCCN=C(N)N)NC(=O)[C@H](CCCCN)NC(=O)[C@H](C)NC(=O)[C@@H](N)Cc1c[nH]cn1)C(=O)N[C@@H](C(=O)O)[C@@H](OC(C)=O)c1ccccc1 (H-HAKRRLI[X3]-OH) |
|  | 1320 | 800 | CC[C@H](C)[C@H](NC(=O)[C@H](CC(C)C)NC(=O)[C@H](CCCN=C(N)N)NC(=O)[C@H](CCCN=C(N)N)NC(=O)[C@H](CCCCN)NC(=O)[C@H](CO)NC(=O)[C@@H](N)Cc1c[nH]cn1)C(=O)N[C@H](C(=O)O)[C@H](OC(C)=O)c1ccccc1 (H-HSKRRLI[X1]-OH) |
| 1300 | 200 | 220 | CC[C@H](C)[C@H](NC(=O)[C@H](CC(C)C)NC(=O)[C@H](CCCN=C(N)N)NC(=O)[C@H](CCCN=C(N)N)NC(=O)[C@H](CCCCN)NC(=O)[C@H](CO)NC(=O)[C@@H](N)Cc1c[nH]cn1)C(=O)N/C(=C\c1ccccc1)C(=O)O (H-HSKRRLI[X2]-OH) |
|  | 1820 | 600 | CC[C@H](C)[C@H](NC(=O)[C@H](CC(C)C)NC(=O)[C@H](CCCN=C(N)N)NC(=O)[C@H](CCCN=C(N)N)NC(=O)[C@H](CCCCN)NC(=O)[C@H](CO)NC(=O)[C@@H](N)Cc1c[nH]cn1)C(=O)N[C@@H](C(=O)O)[C@@H](OC(C)=O)c1ccccc1 (H-HSKRRLI[X3]-OH) |
